Measurements from patent US20160214961A1, “NOVEL SALTS OF CRIZOTINIB AND THEIR PREPARATION” (SHILPA MEDICARE LIMITED, priority 2013, published 2016).

What was measured:
[1] = Stability on handling and storage of the salts; type: physicochemical; settings: storage for longer time; no significant or measurable change
[2] = class IV = low solubility and low permeability; cited from earlier work
[3] = cited from earlier work
[4] = powder; cited from earlier work

Row | stability to handle and store for longer time (morphology and physicochemical characteristics) [1] | Compound | Biopharmaceutics Classification System (BCS) class [2] | solubility in acidic pH ([3]; acidic pH) | solubility in water ([3]; water) | hygroscopicity [4]
1 | adequately stable | C[C@@H](Oc1cc(-c2cnn(C3CCNCC3)c2)cnc1N)c1c(Cl)ccc(F)c1Cl [Crizotinib Ferulate] | – | – | – | –
2 | – | C[C@@H](Oc1cc(-c2cnn(C3CCNCC3)c2)cnc1N)c1c(Cl)ccc(F)c1Cl [Crizotinib, (R)-3-[1-(2,6-Dichloro-3-fluorophenyl)ethoxy]-5-[1-(piperidin-4-yl)-1H-pyrazol-4-yl]pyridin-2-amine] | class IV | highly soluble | insoluble | non-hygroscopic
